{
  "source": "paper PMC3991331",
  "about": "“Fragment screening reveals salicylic hydroxamic acid as an inhibitor of Trypanosoma brucei GPI GlcNAc-PI de-N-acetylase” (Carbohydrate Research, 2014)",
  "key": {"[1]": {"target": "T1, recombinant T. brucei GlcNAc-PI de-N-acetylase (GST-TbGPI12) (Trypanosoma brucei, UniProt Q8I8A5)", "T1 sequence (Q8I8A5 entry or part of it)": "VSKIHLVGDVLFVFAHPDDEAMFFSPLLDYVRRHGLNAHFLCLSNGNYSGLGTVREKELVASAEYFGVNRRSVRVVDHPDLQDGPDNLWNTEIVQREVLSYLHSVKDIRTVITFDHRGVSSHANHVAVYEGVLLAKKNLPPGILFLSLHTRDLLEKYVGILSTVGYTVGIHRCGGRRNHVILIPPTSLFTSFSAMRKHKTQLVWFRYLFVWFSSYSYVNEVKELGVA", "parameters": "method as in PMID 22222041", "settings": "previously reported glucocyclitol-phospholipid substrate analogue; cited from earlier work"}, "[2]": {"target": "T1, recombinant T. brucei GlcNAc-PI de-N-acetylase (GST-TbGPI12)", "test": "Mass spectrometry based activity assay, recombinant GST-TbGPI12", "type": "biochemical", "description": "Inhibition assays were performed in 100 μL final volume, with 1% v/v DMSO with or without inhibitor. […]. Enriched glycolipids were analysed by liquid chromatography coupled to an electrospray tandem mass spectrometer (LC–MS/MS). Samples (40 μL) were injected on to a 10 × 1 mm C18 column (ACE, 5 μM) and eluted using a binary gradient of 5–80% propan-1-ol in 5 mM NH4OAc (Dionex Ultimate 3000). The gradient consisted of 2 min 0% B, 2–4 min 0–100% B, 4–8 min 100%, 8–9 min 100–0% B, 9–10 min 0% B where buffer A consisted of 5% propan-1-ol, 5 mM NH4OAc and buffer B 80% propan-1-ol, 5 mM NH4OAc. The glycolipids were analysed on an electrospray triple quadrapole mass spectrometer (Micromass Quattro Ultima) in multiple reaction monitoring mode. The turnover of the substrate GlcNAc-IPC18 (m/z 715 > 223) to GlcN-IPC18 (m/z 672 > 223) was used to calculate the percentage of substrate conversion to product in a given sample.[6] Inhibitor IC50 values were calculated using a four-parameter fit of eight-point potency curves derived from three independent experiments, and are quoted with standard deviation. […]\nFigure 2 T. brucei GlcNAc-PI de-N-acetylase inhibitors. The activity of the recombinant enzyme against the synthetic substrate D-glucosamine-α-(1-6)-D-myo-inositol-1-octadecyl phosphate was measured using a mass spectrometry based assay (A) Fragments were screened at 1 mM in duplicate. […]"}, "[3]": {"tested_on": "bloodstream form T. brucei", "parameters": "method as in PMID 986688, PMID 17126803", "settings": "cited from earlier work"}, "[4]": {"tested_on": "T. brucei GPI pathway (cell-free system)", "test": "Trypanosome cell-free system assay, [3H]-mannose incorporation into GPI intermediates (HPTLC, fluorography)", "settings": "GlcNAc-IPC18 10 μM; GDP-[3H]-mannose; tested at 0, 100, 300, 1000 μM", "quoted_text": "Trypanosome cell-free system assays, where the formation of GPI precursors is monitored by following the incorporation of [^3H]-mannose were analysed using high-performance liquid chromatography and fluorography as described previously.[13]\nPriming the cell-free system with GlcAc-IPC18 in the presence of GDP-[^3H]-mannose stimulates the production of radiolabelled mannosylated GPI intermediates that can be separated by high performance thin-layer chromatography and visualised by fluorography.\n(A) The T. brucei cell-free system was incubated with GlcNAc-PI (10 μM) in the presence of 0, 100, 300, or 1000 μM of 1 and 0.5 μCi of GDP-[^3H]-mannose to stimulate the production of radiolabelled mannosylated GPI intermediates. Glycolipid products were extracted, separated by high-performance thin-layer chromatography, and visualised by fluorography. DPM–dolichol-phosphate-mannose, M1–Man1GlcN-IPC18, M2–Man2GlcN-IPC18, M3–Man3GlcN-IPC18, A′–EtNPMan3GlcN-IPC18. (B) Inhibition of the turnover of GlcNAc-IPC18 (10 μM) by the presence of 1 measured in the T. brucei cell-free system in the LC–MS/MS assay."}, "[5]": {"target": "T. brucei de-N-acetylase (cell-free system) (Trypanosoma brucei, UniProt Q8I8A5)", "sequence (Q8I8A5 entry or part of it)": "as above", "test": "Mass spectrometry based activity assay, trypanosome cell-free system", "type": "biochemical", "settings": "for inhibition at 1000 µM: read-out: Inhibition at 1 mM (%); for ligand efficiency: from IC50 in cell-free system", "description": "Inhibition assays were performed in 100 μL final volume, with 1% v/v DMSO with or without inhibitor. […] Enriched glycolipids were analysed by liquid chromatography coupled to an electrospray tandem mass spectrometer (LC–MS/MS). Samples (40 μL) were injected on to a 10 × 1 mm C18 column (ACE, 5 μM) and eluted using a binary gradient of 5–80% propan-1-ol in 5 mM NH4OAc (Dionex Ultimate 3000). The gradient consisted of 2 min 0% B, 2–4 min 0–100% B, 4–8 min 100%, 8–9 min 100–0% B, 9–10 min 0% B where buffer A consisted of 5% propan-1-ol, 5 mM NH4OAc and buffer B 80% propan-1-ol, 5 mM NH4OAc. The glycolipids were analysed on an electrospray triple quadrapole mass spectrometer (Micromass Quattro Ultima) in multiple reaction monitoring mode. […] Inhibitor IC50 values were calculated using a four-parameter fit of eight-point potency curves derived from three independent experiments, and are quoted with standard deviation. […]"}, "[6]": {"settings": "1 mM, cell-free system, Table 1, commercially available analogues of 1"}, "[7]": {"settings": "1 mM, fragment library screen, Table S1, footnote: cell-free system"}},
  "note": "Where two headings read alike, the source gives them in different places.",
  "data": [
    {"smiles": "CCCCCCCCCCCCCCCCCCOP(=O)(O)O[C@@H]1CCCC[C@H]1O[C@@H]1O[C@H](CO)[C@@H](O)[C@H](O)[C@H]1CC(=O)NO", "note": "[1R,2R-1-O-[2-C-(carboxymethyl N-hydroxyamide)-2-deoxy-β-D-glucopyranosyl]-cyclohexanediol 2-(n-octadecylphosphate), reference compound]", "values": [
      {"measurement": "IC50", "setting": "[1]", "result": "19 ± 0.5", "unit": "µM"},
      {"measurement": "ligand efficiency", "setting": "[2]; from the previously reported IC50 of ref 13", "result": "−0.13 kcal mol^−1 per non-hydrogen atom"}
    ]},
    {"smiles": "O=C(NO)c1ccccc1O", "note": "[compound 1, salicylic hydroxamic acid]", "values": [
      {"measurement": "toxicity in vivo to bloodstream form T. brucei", "setting": "[3]", "result": "toxic in vivo"},
      {"measurement": "concentration that prevented priming of the cell-free system with GlcNAc-IPC18", "setting": "[4]", "result": "> 300", "unit": "µM"},
      {"measurement": "inhibition at 1000 µM", "setting": "[5]", "result": "97 ± 2", "unit": "%"},
      {"measurement": "IC50", "setting": "[2]", "result": "63 ± 4", "unit": "µM"}
    ]},
    {"smiles": "O=C(O)c1ccccc1O", "note": "[compound 2]", "values": [
      {"measurement": "inhibition at 1000 µM", "setting": "[5]", "result": "25 ± 1", "unit": "%"}
    ]},
    {"smiles": "O=C(NO)c1ccccc1", "note": "[compound 3]", "values": [
      {"measurement": "inhibition at 1000 µM", "setting": "[5]; [6]", "result": "-6 ± 14", "unit": "%"}
    ]},
    {"smiles": "O=C(NO)c1ccccc1Br", "note": "[compound 4]", "values": [
      {"measurement": "inhibition at 1000 µM", "setting": "[5]; [6]", "result": "-4 ± 15", "unit": "%"}
    ]},
    {"smiles": "Nc1ccccc1C(=O)NO", "note": "[compound 5]", "values": [
      {"measurement": "inhibition at 1000 µM", "setting": "[5]; [6]", "result": "-5 ± 2", "unit": "%"}
    ]},
    {"smiles": "O=C(NO)c1ccc(Br)cc1O", "note": "[compound 6]", "values": [
      {"measurement": "inhibition at 1000 µM", "setting": "[5]; [6]", "result": "86 ± 2", "unit": "%"}
    ]},
    {"smiles": "O=C(NO)c1ccc(Br)cc1", "note": "[compound 7]", "values": [
      {"measurement": "inhibition at 1000 µM", "setting": "[5]; [6]", "result": "9.6 ± 15", "unit": "%"}
    ]},
    {"smiles": "O=C(NO)c1cc(NC(=O)C2CCCCC2)ccc1O", "note": "[compound 20, 5-(Cyclohexanecarboxamido)-N,2-dihydroxybenzamide]", "values": [
      {"measurement": "melting point", "result": "229 to 230", "unit": "°C"},
      {"measurement": "ligand efficiency", "setting": "[5]", "result": "−0.30 kcal mol^−1 per non-hydrogen atom"},
      {"measurement": "inhibition at 1000 µM", "setting": "[5]", "result": "99 ± 1.6", "unit": "%"}
    ]},
    {"smiles": "O=C(Nc1ccc(O)c(C(=O)NO)c1)c1ccccc1", "note": "[compound 21, 5-Benzamido-N,2-dihydroxybenzamide]", "values": [
      {"measurement": "melting point", "result": 211, "unit": "°C"},
      {"measurement": "ligand efficiency", "setting": "[5]", "result": "−0.29 kcal mol^−1 per non-hydrogen atom"},
      {"measurement": "inhibition at 1000 µM", "setting": "[5]", "result": "96 ± 0.4", "unit": "%"}
    ]},
    {"smiles": "Cc1ccc(C(=O)Nc2ccc(O)c(C(=O)NO)c2)cc1", "note": "[compound 22, N,2-Dihydroxy-5-(4-methylbenzamido)benzamide]", "values": [
      {"measurement": "melting point", "result": 209, "unit": "°C"},
      {"measurement": "inhibition at 1000 µM", "setting": "[5]", "result": "62 ± 24", "unit": "%"}
    ]},
    {"smiles": "CCCCCCCCCCCCCCCCCC(=O)Nc1ccc(O)c(C(=O)NO)c1", "note": "[compound 23, N,2-Dihydroxy-5-stearamidobenzamide]", "values": [
      {"measurement": "melting point", "result": "185 to 187", "unit": "°C"},
      {"measurement": "inhibition at 1000 µM", "setting": "[5]", "result": "25 ± 14", "unit": "%"}
    ]},
    {"smiles": "CC(=O)N1CCC(C(=O)Nc2ccc(O)c(C(=O)NO)c2)CC1", "note": "[compound 24, 1-Acetyl-N-(4-hydroxy-3-(hydroxycarbamoyl)phenyl)piperidine-4-carboxamide]", "values": [
      {"measurement": "melting point", "result": "211 to 212", "unit": "°C"},
      {"measurement": "inhibition at 1000 µM", "setting": "[5]", "result": "40 ± 17", "unit": "%"}
    ]},
    {"smiles": "O=C(Nc1ccc(O)c(C(=O)NO)c1)c1ccc(-c2ccccc2)cc1", "note": "[compound 25, N-(4-Hydroxy-3-(hydroxycarbamoyl)phenyl)-[1,1'-biphenyl]-4-carboxamide]", "values": [
      {"measurement": "melting point", "result": 216, "unit": "°C"},
      {"measurement": "inhibition at 1000 µM", "setting": "[5]", "result": "75 ± 7", "unit": "%"}
    ]},
    {"smiles": "O=C(NO)c1cc(NC(=O)C2CCOCC2)ccc1O", "note": "[compound 26, N-(4-Hydroxy-3-(hydroxycarbamoyl)phenyl)tetrahydro-2H-pyran-4-carboxamide]", "values": [
      {"measurement": "melting point", "result": 209, "unit": "°C"},
      {"measurement": "inhibition at 1000 µM", "setting": "[5]", "result": "56 ± 8.3", "unit": "%"}
    ]},
    {"smiles": "O=C(Nc1ccc(O)c(C(=O)NO)c1)c1ccc2c(c1)OCO2", "note": "[compound 27, N-(4-Hydroxy-3-(hydroxycarbamoyl)phenyl)benzo[d][1,3]dioxole-5-carboxamide]", "values": [
      {"measurement": "melting point", "result": 209, "unit": "°C"},
      {"measurement": "inhibition at 1000 µM", "setting": "[5]", "result": "86 ± 11", "unit": "%"}
    ]},
    {"smiles": "COc1ccc(NC(=O)NO)cc1", "note": "[compound 503]", "values": [
      {"measurement": "inhibition at 1000 µM", "setting": "[5]; [7]", "result": "53 ± 2", "unit": "%"}
    ]},
    {"smiles": "O=C(CCCOc1ccc(Cl)cc1Cl)NO", "note": "[compound 508]", "values": [
      {"measurement": "inhibition at 1000 µM", "setting": "[5]; [7]", "result": "67 ± 20", "unit": "%"}
    ]},
    {"smiles": "O=C(COc1ccc(Cl)cc1Cl)NO", "note": "[compound 509]", "values": [
      {"measurement": "inhibition at 1000 µM", "setting": "[5]", "result": "62 ± 0.3", "unit": "%"}
    ]},
    {"smiles": "O=C(NO)C1CCN(c2ncc(C(F)(F)F)cc2Cl)CC1", "note": "[compound 513]", "values": [
      {"measurement": "inhibition at 1000 µM", "setting": "[5]; [7]", "result": "54 ± 4", "unit": "%"}
    ]},
    {"smiles": "O=C(CCc1nc(-c2ccc(Cl)cc2)no1)NO", "note": "[compound 514]", "values": [
      {"measurement": "inhibition at 1000 µM", "setting": "[5]; [7]", "result": "54 ± 9", "unit": "%"}
    ]}
  ]
}
